In US20230085307A1, “PYRIDAZINONE COMPOUND AND HERBICIDE” (NISSAN CHEMICAL CORPORATION, priority 2019, published 2023):

How the values were obtained:
barnyard grass [1] = experiment: Test Example 3: herbicidal effect by foliage application, Wagner pot (Table 18, symbol H); assay type: in vivo, barnyard grass (Echinochloa crus-galli); conditions: 320 g/ha
Method in brief: (§1)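 Plants were sown in alluvial soil held under 0.1–0.5 cm standing water and grown 14 days in a greenhouse at 25–30 °C. An emulsifiable formulation, water-diluted to the set dose, was then sprayed onto the foliage, and effects were scored three weeks later using previously defined criteria.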

Chinese sprangletop = experiment: Test Example 3: herbicidal effect by foliage application, Wagner pot (Table 18, symbol D); assay type: in vivo, chinese sprangletop (Leptochloa chinensis); conditions: 320 g/ha
Method in brief: as §1

rice flat sedge = experiment: Test Example 3: herbicidal effect by foliage application, Wagner pot (Table 18, symbol E); assay type: in vivo, rice flat sedge (Cyperus iria); conditions: 320 g/ha
Method in brief: as §1

southern crabgrass [2] = experiment: Test Example 4: herbicidal effect by soil treatment (Table 19, symbol F); assay type: in vivo, southern crabgrass (Digitaria ciliaris); conditions: AAH 320 g/ha
Method in brief: (§2)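 Applied as a water-diluted emulsion, the compound was sprayed onto soil covering newly sown seeds. Evaluation came three weeks after application, in a greenhouse held at 25° C. to 30° C.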

green foxtail [3] = experiment: Test Example 4: herbicidal effect by soil treatment (Table 19, symbol G); assay type: in vivo, green foxtail (Setaria viridis); conditions: AAH 320 g/ha
Method in brief: as §2

barnyard grass [4] = experiment: Test Example 4: herbicidal effect by soil treatment (Table 19, symbol H); assay type: in vivo, barnyard grass (Echinochloa crus-galli); conditions: AAH 320 g/ha
Method in brief: as §2

wild oat [5] = experiment: Test Example 4: herbicidal effect by soil treatment (Table 19, symbol I); assay type: in vivo, wild oat (Avena fatua); conditions: AAH 320 g/ha
Method in brief: as §2

blackgrass [6] = experiment: Test Example 4: herbicidal effect by soil treatment (Table 19, symbol J); assay type: in vivo, blackgrass (Alopecurus myosuroides); conditions: AAH 320 g/ha
Method in brief: as §2

Italian ryegrass [7] = experiment: Test Example 4: herbicidal effect by soil treatment (Table 19, symbol K); assay type: in vivo, Italian ryegrass (Lolium multiflorum); conditions: AAH 320 g/ha
Method in brief: as §2

windgrass [8] = experiment: Test Example 4: herbicidal effect by soil treatment (Table 19, symbol L); assay type: in vivo, windgrass (Apera spica-venti); conditions: AAH 320 g/ha
Method in brief: as §2

velvetleaf [9] = experiment: Test Example 4: herbicidal effect by soil treatment (Table 19, symbol M); assay type: in vivo, velvetleaf (Abutilon theophrasti); conditions: AAH 320 g/ha
Method in brief: as §2

redroot pigweed [10] = experiment: Test Example 4: herbicidal effect by soil treatment (Table 19, symbol N); assay type: in vivo, redroot pigweed (Amaranthus retroflexus); conditions: AAH 320 g/ha
Method in brief: as §2

lambsquarters [11] = experiment: Test Example 4: herbicidal effect by soil treatment (Table 19, symbol O); assay type: in vivo, lambsquarters (Chenopodium album); conditions: AAH 320 g/ha
Method in brief: as §2

chickweed [12] = experiment: Test Example 4: herbicidal effect by soil treatment (Table 19, symbol P); assay type: in vivo, common chickweed (Stellaria media); conditions: AAH 320 g/ha
Method in brief: as §2

persian speedwell [13] = experiment: Test Example 4: herbicidal effect by soil treatment (Table 19, symbol R); assay type: in vivo, Persian speedwell (Veronica persica); conditions: AAH 320 g/ha
Method in brief: as §2

southern crabgrass [14] = experiment: Test Example 5: herbicidal effect by foliage application, plastic box (Table 20, symbol F); assay type: in vivo, southern crabgrass (Digitaria ciliaris); conditions: foliage application, AAH 320 g/ha, three weeks after application
Method in brief: (§3)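 Sow seeds spot-wise in sterilized diluvial soil; cover with ~1.5 cm soil. Grow 14 days in greenhouse, 25° C. to 30° C. Spray foliage with emulsion diluted to predetermined amount. Rate effect after 3 weeks.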

green foxtail [15] = experiment: Test Example 5: herbicidal effect by foliage application, plastic box (Table 20, symbol G); assay type: in vivo, green foxtail (Setaria viridis); conditions: foliage application, AAH 320 g/ha, three weeks after application
Method in brief: as §3

barnyard grass [16] = experiment: Test Example 5: herbicidal effect by foliage application, plastic box (Table 20, symbol H); assay type: in vivo, barnyard grass (Echinochloa crus-galli); conditions: foliage application, AAH 320 g/ha, three weeks after application
Method in brief: as §3

wild oat [17] = experiment: Test Example 5: herbicidal effect by foliage application, plastic box (Table 20, symbol I); assay type: in vivo, wild oat (Avena fatua); conditions: foliage application, AAH 320 g/ha, three weeks after application
Method in brief: as §3

blackgrass [18] = experiment: Test Example 5: herbicidal effect by foliage application, plastic box (Table 20, symbol J); assay type: in vivo, blackgrass (Alopecurus myosuroides); conditions: foliage application, AAH 320 g/ha, three weeks after application
Method in brief: as §3

Italian ryegrass [19] = experiment: Test Example 5: herbicidal effect by foliage application, plastic box (Table 20, symbol K); assay type: in vivo, Italian ryegrass (Lolium multiflorum); conditions: foliage application, AAH 320 g/ha, three weeks after application
Method in brief: as §3

windgrass [20] = experiment: Test Example 5: herbicidal effect by foliage application, plastic box (Table 20, symbol L); assay type: in vivo, windgrass (Apera spica-venti); conditions: foliage application, AAH 320 g/ha, three weeks after application
Method in brief: as §3

velvetleaf [21] = experiment: Test Example 5: herbicidal effect by foliage application, plastic box (Table 20, symbol M); assay type: in vivo, velvetleaf (Abutilon theophrasti); conditions: foliage application, AAH 320 g/ha, three weeks after application
Method in brief: as §3

redroot pigweed [22] = experiment: Test Example 5: herbicidal effect by foliage application, plastic box (Table 20, symbol N); assay type: in vivo, redroot pigweed (Amaranthus retroflexus); conditions: foliage application, AAH 320 g/ha, three weeks after application
Method in brief: as §3

lambsquarters [23] = experiment: Test Example 5: herbicidal effect by foliage application, plastic box (Table 20, symbol O); assay type: in vivo, lambsquarters (Chenopodium album); conditions: foliage application, AAH 320 g/ha, three weeks after application
Method in brief: as §3

chickweed [24] = experiment: Test Example 5: herbicidal effect by foliage application, plastic box (Table 20, symbol P); assay type: in vivo, common chickweed (Stellaria media); conditions: foliage application, AAH 320 g/ha, three weeks after application
Method in brief: as §3

persian speedwell [25] = experiment: Test Example 5: herbicidal effect by foliage application, plastic box (Table 20, symbol R); assay type: in vivo, Persian speedwell (Veronica persica); conditions: foliage application, AAH 320 g/ha, three weeks after application
Method in brief: as §3

SMILES | herbicidal effect on H (barnyard grass), rating 0-5 (barnyard grass [1]) | herbicidal effect on D (Chinese sprangletop), rating 0-5 (Chinese sprangletop) | herbicidal effect on E (rice flat sedge), rating 0-5 (rice flat sedge) | F: southern crabgrass, herbicidal effect rating (southern crabgrass [2]) | G: green foxtail, herbicidal effect rating (green foxtail [3]) | H: barnyard grass, herbicidal effect rating (barnyard grass [4]) | I: wild oat, herbicidal effect rating (wild oat [5]) | J: blackgrass, herbicidal effect rating (blackgrass [6]) | K: Italian ryegrass, herbicidal effect rating (Italian ryegrass [7]) | L: windgrass, herbicidal effect rating (windgrass [8]) | M: velvetleaf, herbicidal effect rating (velvetleaf [9]) | N: redroot pigweed, herbicidal effect rating (redroot pigweed [10]) | O: lambsquarters, herbicidal effect rating (lambsquarters [11]) | P: chickweed, herbicidal effect rating (chickweed [12]) | R: persian speedwell, herbicidal effect rating (persian speedwell [13]) | F: southern crabgrass, herbicidal effect (southern crabgrass [14]) | G: green foxtail, herbicidal effect (green foxtail [15]) | H: barnyard grass, herbicidal effect (barnyard grass [16]) | I: wild oat, herbicidal effect (wild oat [17]) | J: blackgrass, herbicidal effect (blackgrass [18]) | other results
C=CCOc1ccc(-c2sc3ccccc3c2-c2c(O)c(C)nn(C)c2=O)cc1 [1-139] | 5 (Herbicidal rate of 90% or more (almost completely withered)) | 0 (Herbicidal rate of 5% or less (almost no effect)) | 5 (Herbicidal rate of 90% or more (almost completely withered)) | 0 (Herbicidal rate of 5% or less (almost no effect)) | 3 (Herbicidal rate of 40% or more and less than 70%) | 4 (Herbicidal rate of 70% or more and less than 90%) | 0 (Herbicidal rate of 5% or less (almost no effect)) | 0 (Herbicidal rate of 5% or less (almost no effect)) | 5 (Herbicidal rate of 90% or more (almost completely withered)) | 3 (Herbicidal rate of 40% or more and less than 70%) | 2 (Herbicidal rate of 20% or more and less than 40%) | 5 (Herbicidal rate of 90% or more (almost completely withered)) | 4 (Herbicidal rate of 70% or more and less than 90%) | 5 (Herbicidal rate of 90% or more (almost completely withered)) | 5 (Herbicidal rate of 90% or more (almost completely withered)) | 5 (Herbicidal rate of 90% or more (almost completely withered)) | 5 (Herbicidal rate of 90% or more (almost completely withered)) | 5 (Herbicidal rate of 90% or more (almost completely withered)) | 4 (Herbicidal rate of 70% or more and less than 90%) | 4 (Herbicidal rate of 70% or more and less than 90%) | K: Italian ryegrass, herbicidal effect (Italian ryegrass [19]): 5 (Herbicidal rate of 90% or more (almost completely withered)); L: windgrass, herbicidal effect (windgrass [20]): 5 (Herbicidal rate of 90% or more (almost completely withered)); M: velvetleaf, herbicidal effect (velvetleaf [21]): 4 (Herbicidal rate of 70% or more and less than 90%); N: redroot pigweed, herbicidal effect (redroot pigweed [22]): 5 (Herbicidal rate of 90% or more (almost completely withered)); O: lambsquarters, herbicidal effect (lambsquarters [23]): 4 (Herbicidal rate of 70% or more and less than 90%); P: chickweed, herbicidal effect (chickweed [24]): 5 (Herbicidal rate of 90% or more (almost completely withered)); R: persian speedwell, herbicidal effect (persian speedwell [25]): 5 (Herbicidal rate of 90% or more (almost completely withered))
COc1nn(C)c(=O)c(-c2c(-c3ccc([N+](=O)[O-])cc3)sc3ccccc23)c1O [1-168] | 0 (Herbicidal rate of 5% or less (almost no effect)) | 0 (Herbicidal rate of 5% or less (almost no effect)) | 3 (Herbicidal rate of 40% or more and less than 70%) | 0 (Herbicidal rate of 5% or less (almost no effect)) | 0 (Herbicidal rate of 5% or less (almost no effect)) | 0 (Herbicidal rate of 5% or less (almost no effect)) | 0 (Herbicidal rate of 5% or less (almost no effect)) | 0 (Herbicidal rate of 5% or less (almost no effect)) | 0 (Herbicidal rate of 5% or less (almost no effect)) | 0 (Herbicidal rate of 5% or less (almost no effect)) | 0 (Herbicidal rate of 5% or less (almost no effect)) | 1 (Herbicidal rate of 5% or more and less than 20%) | 0 (Herbicidal rate of 5% or less (almost no effect)) | 4 (Herbicidal rate of 70% or more and less than 90%) | 3 (Herbicidal rate of 40% or more and less than 70%) | 3 (Herbicidal rate of 40% or more and less than 70%) | 3 (Herbicidal rate of 40% or more and less than 70%) | 2 (Herbicidal rate of 20% or more and less than 40%) | 0 (Herbicidal rate of 5% or less (almost no effect)) | 0 (Herbicidal rate of 5% or less (almost no effect)) | K: Italian ryegrass, herbicidal effect (Italian ryegrass [19]): 2 (Herbicidal rate of 20% or more and less than 40%); L: windgrass, herbicidal effect (windgrass [20]): 0 (Herbicidal rate of 5% or less (almost no effect)); M: velvetleaf, herbicidal effect (velvetleaf [21]): 4 (Herbicidal rate of 70% or more and less than 90%); N: redroot pigweed, herbicidal effect (redroot pigweed [22]): 5 (Herbicidal rate of 90% or more (almost completely withered)); O: lambsquarters, herbicidal effect (lambsquarters [23]): 4 (Herbicidal rate of 70% or more and less than 90%); P: chickweed, herbicidal effect (chickweed [24]): 5 (Herbicidal rate of 90% or more (almost completely withered)); R: persian speedwell, herbicidal effect (persian speedwell [25]): 5 (Herbicidal rate of 90% or more (almost completely withered))
COc1nn(C)c(=O)c(-c2c(-c3ccc(C#N)cc3)sc3ccccc23)c1O [1-170] | 2 (Herbicidal rate of 20% or more and less than 40%) | 1 (Herbicidal rate of 5% or more and less than 20%) | 5 (Herbicidal rate of 90% or more (almost completely withered)) | 0 (Herbicidal rate of 5% or less (almost no effect)) | 0 (Herbicidal rate of 5% or less (almost no effect)) | 0 (Herbicidal rate of 5% or less (almost no effect)) | 0 (Herbicidal rate of 5% or less (almost no effect)) | 0 (Herbicidal rate of 5% or less (almost no effect)) | 0 (Herbicidal rate of 5% or less (almost no effect)) | 0 (Herbicidal rate of 5% or less (almost no effect)) | 0 (Herbicidal rate of 5% or less (almost no effect)) | 5 (Herbicidal rate of 90% or more (almost completely withered)) | 0 (Herbicidal rate of 5% or less (almost no effect)) | 4 (Herbicidal rate of 70% or more and less than 90%) | 5 (Herbicidal rate of 90% or more (almost completely withered)) | 3 (Herbicidal rate of 40% or more and less than 70%) | 5 (Herbicidal rate of 90% or more (almost completely withered)) | 4 (Herbicidal rate of 70% or more and less than 90%) | 2 (Herbicidal rate of 20% or more and less than 40%) | 0 (Herbicidal rate of 5% or less (almost no effect)) | K: Italian ryegrass, herbicidal effect (Italian ryegrass [19]): 3 (Herbicidal rate of 40% or more and less than 70%); L: windgrass, herbicidal effect (windgrass [20]): 0 (Herbicidal rate of 5% or less (almost no effect)); M: velvetleaf, herbicidal effect (velvetleaf [21]): 5 (Herbicidal rate of 90% or more (almost completely withered)); N: redroot pigweed, herbicidal effect (redroot pigweed [22]): 5 (Herbicidal rate of 90% or more (almost completely withered)); O: lambsquarters, herbicidal effect (lambsquarters [23]): 5 (Herbicidal rate of 90% or more (almost completely withered)); P: chickweed, herbicidal effect (chickweed [24]): 5 (Herbicidal rate of 90% or more (almost completely withered)); R: persian speedwell, herbicidal effect (persian speedwell [25]): 5 (Herbicidal rate of 90% or more (almost completely withered))
